Literature values in patent publication US8686137B2, “Heterocyclic compounds and their uses” (Amgen Inc., priority 2010, dated 2014).

Tests used:
[1] = system: mouse model of rheumatoid arthritis; conditions: in vivo
[2] = system: model of systemic lupus erythematosis; conditions: in vivo
[3] = target: T1, p110δ (Homo sapiens, UniProt O00329)
T1 sequence (O00329 1-1044): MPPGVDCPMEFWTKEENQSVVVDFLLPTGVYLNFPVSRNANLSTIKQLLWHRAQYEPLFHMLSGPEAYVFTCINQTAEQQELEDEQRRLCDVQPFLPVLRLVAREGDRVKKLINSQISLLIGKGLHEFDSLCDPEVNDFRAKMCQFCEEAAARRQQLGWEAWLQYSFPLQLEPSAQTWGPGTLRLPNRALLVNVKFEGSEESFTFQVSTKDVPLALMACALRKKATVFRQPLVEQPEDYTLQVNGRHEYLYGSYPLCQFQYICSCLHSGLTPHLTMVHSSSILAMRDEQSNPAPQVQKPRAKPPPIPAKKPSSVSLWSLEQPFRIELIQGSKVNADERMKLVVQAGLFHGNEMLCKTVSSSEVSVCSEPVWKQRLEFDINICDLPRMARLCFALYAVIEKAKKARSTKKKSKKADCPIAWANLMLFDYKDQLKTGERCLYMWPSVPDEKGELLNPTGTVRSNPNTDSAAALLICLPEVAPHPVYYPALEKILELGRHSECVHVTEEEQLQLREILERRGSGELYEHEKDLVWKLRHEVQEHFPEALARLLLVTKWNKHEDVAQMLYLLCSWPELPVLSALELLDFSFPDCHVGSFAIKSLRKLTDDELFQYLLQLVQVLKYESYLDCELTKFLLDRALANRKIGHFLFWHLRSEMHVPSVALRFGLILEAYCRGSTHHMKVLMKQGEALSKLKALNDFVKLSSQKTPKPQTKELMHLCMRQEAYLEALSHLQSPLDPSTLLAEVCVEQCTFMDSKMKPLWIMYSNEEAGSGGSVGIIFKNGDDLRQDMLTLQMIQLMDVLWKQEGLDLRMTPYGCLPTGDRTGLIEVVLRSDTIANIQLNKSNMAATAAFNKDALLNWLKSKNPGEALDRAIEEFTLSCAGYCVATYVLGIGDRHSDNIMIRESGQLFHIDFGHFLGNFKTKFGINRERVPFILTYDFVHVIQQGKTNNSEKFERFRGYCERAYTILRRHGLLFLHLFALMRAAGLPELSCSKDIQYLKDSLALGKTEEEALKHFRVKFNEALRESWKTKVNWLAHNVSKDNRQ

[4] = system: protein kinases
[5] = system: passive cutaneous anaphylaxis (PCA); conditions: absence of functional delta (compound or p110δ D910A mice)
[6] = system: ovalbumin-induced airway inflammation

SMILES	efficacy in a mouse model of rheumatoid arthritis [1]	onset of disease in a model of systemic lupus erythematosis [2]	inhibits p110δ [3]	activity against any protein kinases tested [4]	passive cutaneous anaphylaxis (PCA) [5]	inflammation and disease in a murine model of asthma [6]
O=C1NC(=O)/C(=C\c2ccc3nccnc3c2)S1 [AS 605240]	efficacious	delay onset of disease	–	–	–	–
Cc1ccccc1-n1c(Cn2cnc3c(N)ncnc32)nc2cccc(C)c2c1=O [IC87114]	–	–	high nanomolar range (triple digit)	no activity	significantly reduced	significantly ameliorate
